Experimental data published in ChEMBL document CHEMBL1201862, “PubChem BioAssay data set” (2004).
Active and inactive are the calls of the source.

Key:
Assay type in all cases: functional
[1] = biological target: Vascular endothelial growth factor receptor 1 (Homo sapiens, UniProt P17948);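 also: measured within a kinome-wide profiling panel, FLT1 as the panel member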
[2] = biological target: Death-associated protein kinase 3 (Homo sapiens, UniProt O43293);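 also: measured as one member of a kinome-wide profiling panel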
[3] = biological target: Dual specificity mitogen-activated protein kinase kinase 1 (Homo sapiens, UniProt Q02750); test: Navigating the Kinome. Panel member name: MAP2K1
[4] = biological target: Insulin-like growth factor 1 receptor (Homo sapiens, UniProt P08069); test: Navigating the Kinome. Panel member name: IGF1R
[5] = biological target: Serine/threonine-protein kinase TBK1 (Homo sapiens, UniProt Q9UHD2); test: Navigating the Kinome. Panel member name: TBK1
[6] = biological target: Tyrosine-protein kinase Fyn (Homo sapiens, UniProt P06241)
[7] = biological target: Leucine-rich repeat serine/threonine-protein kinase 2 (Homo sapiens, UniProt Q5S007);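 also: value from a broad kinome-wide panel profiling study in which LRRK2 was one of the kinases tested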
[8] = biological target: Leukocyte tyrosine kinase receptor (Homo sapiens, UniProt P29376); test: Navigating the Kinome. Panel member name: LTK
[9] = biological target: Calcium/calmodulin-dependent protein kinase type II subunit alpha (Homo sapiens, UniProt Q9UQM7); test: Navigating the Kinome. Panel member name: CAMK2A
[10] = biological target: Ribosomal protein S6 kinase alpha-3 (Homo sapiens, UniProt P51812);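 also: measured within a kinome-wide profiling panel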
[11] = biological target: Inhibitor of nuclear factor kappa-B kinase subunit epsilon (Homo sapiens, UniProt Q14164); test: Navigating the Kinome. Panel member name: IKBKE
[12] = biological target: Vascular endothelial growth factor receptor 2 (Homo sapiens, UniProt P35968)
[13] = biological target: Mitogen-activated protein kinase kinase kinase kinase 2 (Homo sapiens, UniProt Q12851);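 also: measured as one member of a kinome-wide kinase panel, with MAP4K2 as the panel entry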
[14] = biological target: Mitogen-activated protein kinase 9 (Homo sapiens, UniProt P45984);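 also: value from a kinome panel profiling assay, MAPK9 panel entry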
[15] = biological target: Dual specificity protein kinase CLK4 (Homo sapiens, UniProt Q9HAZ1)
[16] = biological target: Cyclin-dependent kinase 8 (Homo sapiens, UniProt P49336); test: Navigating the Kinome. Panel member name: CDK8
[17] = biological target: Serine/threonine-protein kinase TAO1 (Homo sapiens, UniProt Q7L7X3)
[18] = biological target: Cyclin-dependent kinase 7 (Homo sapiens, UniProt P50613);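 also: value comes from a kinome-wide kinase profiling panel in which CDK7 is one member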
Activated CDC42 kinase 1 = Activated CDC42 kinase 1 (Homo sapiens, UniProt Q07912); test: Navigating the Kinome. Panel member name: ACK1
[19] = biological target: Cyclin-dependent kinase 5 (Homo sapiens, UniProt Q00535);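 also: CDK5 measured as one member of a kinase profiling panel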
[20] = biological target: ALK tyrosine kinase receptor (Homo sapiens, UniProt Q9UM73);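 also: ALK tested as one member of a kinase panel screen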
[21] = biological target: BDNF/NT-3 growth factors receptor (Homo sapiens, UniProt Q16620);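 also: NTRK2 measured as one member of a broad kinome-wide kinase profiling panel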
[22] = biological target: Dual specificity protein kinase CLK2 (Homo sapiens, UniProt P49760)
[23] = biological target: Hepatocyte growth factor receptor (Homo sapiens, UniProt P08581);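 also: kinase panel profiling across the kinome, with MET as the panel member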
[24] = biological target: Glycogen synthase kinase-3 beta (Homo sapiens, UniProt P49841);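 also: value comes from a broad kinome profiling panel, with GSK3B as the panel member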
[25] = biological target: cAMP-dependent protein kinase catalytic subunit PRKX (Homo sapiens, UniProt P51817)
Aurora kinase B = Aurora kinase B (Homo sapiens, UniProt Q96GD4)
[26] = biological target: Dual specificity tyrosine-phosphorylation-regulated kinase 1B (Homo sapiens, UniProt Q9Y463); test: Navigating the Kinome. Panel member name: DYRK1B
[27] = biological target: Protein kinase C theta type (Homo sapiens, UniProt Q04759); test: Navigating the Kinome. Panel member name: PRKCQ
[28] = biological target: Tyrosine-protein kinase BTK (Homo sapiens, UniProt Q06187)
[29] = biological target: 5'-AMP-activated protein kinase catalytic subunit alpha-1 (Homo sapiens, UniProt Q13131)
[30] = biological target: Tyrosine-protein kinase ABL1 (Homo sapiens, UniProt P00519)
[31] = biological target: High affinity nerve growth factor receptor (Homo sapiens, UniProt P04629);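 also: NTRK1 tested as one member of a kinome-wide profiling panel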
[32] = biological target: Platelet-derived growth factor receptor alpha (Homo sapiens, UniProt P16234); test: Navigating the Kinome. Panel member name: PDGFRA
[33] = biological target: Tyrosine-protein kinase receptor TYRO3 (Homo sapiens, UniProt Q06418);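 also: TYRO3 value obtained as one member of a kinome-wide profiling panel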
[34] = biological target: Fibroblast growth factor receptor 1 (Homo sapiens, UniProt P11362)
[35] = biological target: Serine/threonine-protein kinase pim-1 (Homo sapiens, UniProt P11309)
[36] = biological target: Mitogen-activated protein kinase 8 (Homo sapiens, UniProt P45983);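 also: value comes from one member of a kinome-wide kinase profiling panel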
[37] = biological target: Dual specificity tyrosine-phosphorylation-regulated kinase 1A (Homo sapiens, UniProt Q13627);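 also: measured against DYRK1A as one member of a broad kinome profiling panel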
[38] = biological target: Glycogen synthase kinase-3 alpha (Homo sapiens, UniProt P49840);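 also: GSK3A result taken from a broad kinome-wide kinase panel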
[39] = biological target: Rho-associated protein kinase 1 (Homo sapiens, UniProt Q13464);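 also: measured within a broad kinome-wide panel profiling many kinases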
[40] = biological target: Serine/threonine-protein kinase PAK 4 (Homo sapiens, UniProt O96013);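 also: value obtained within a kinome profiling panel in which PAK4 was one of the panel members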
[41] = biological target: Tyrosine-protein kinase JAK2 (Homo sapiens, UniProt O60674);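 also: JAK2 tested as one member of a kinase panel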
[42] = biological target: Dual specificity mitogen-activated protein kinase kinase 2 (Homo sapiens, UniProt P36507); test: Navigating the Kinome. Panel member name: MAP2K2
[43] = biological target: Cyclin-dependent kinase 9 (Homo sapiens, UniProt P50750);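 also: value from the CDK9 entry of a kinome-spanning kinase panel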
Activin receptor type-1 = Activin receptor type-1 (Homo sapiens, UniProt Q04771); test: Navigating the Kinome. Panel member name: ACVR1
[44] = biological target: Tyrosine-protein kinase JAK3 (Homo sapiens, UniProt P52333)
[45] = biological target: Proto-oncogene tyrosine-protein kinase receptor Ret (Homo sapiens, UniProt P07949);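 also: measured within a kinome-wide profiling panel, RET as the panel member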
[46] = biological target: Receptor-type tyrosine-protein kinase FLT3 (Homo sapiens, UniProt P36888);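 also: FLT3 was tested as one member of a kinome-wide kinase panel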
[47] = biological target: Serine/threonine-protein kinase D3 (Homo sapiens, UniProt O94806);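 also: determined within a kinase panel screen, with PRKCN as the panel member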
[48] = biological target: G protein-coupled receptor kinase 5 (Homo sapiens, UniProt P34947); test: Navigating the Kinome. Panel member name: GPRK5
Aurora kinase A = Aurora kinase A (Homo sapiens, UniProt O14965);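 also: value from the Navigating the Kinome kinase panel profiling, panel entry STK6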
[49] = biological target: Macrophage colony-stimulating factor 1 receptor (Homo sapiens, UniProt P07333);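 also: value comes from the Navigating the Kinome screening panel, CSF1R member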
[50] = biological target: Mitogen-activated protein kinase kinase kinase kinase 4 (Homo sapiens, UniProt O95819)
[51] = biological target: Mitogen-activated protein kinase 14 (Homo sapiens, UniProt Q16539);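 also: part of a kinome-wide panel, MAPK14 entry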
[52] = biological target: cAMP-dependent protein kinase catalytic subunit alpha (Homo sapiens, UniProt P17612)
[53] = biological target: Macrophage-stimulating protein receptor (Homo sapiens, UniProt Q04912); test: Navigating the Kinome. Panel member name: MST1R

Serine/threonine-protein kinase pim-1, sequence (P11309 whole entry): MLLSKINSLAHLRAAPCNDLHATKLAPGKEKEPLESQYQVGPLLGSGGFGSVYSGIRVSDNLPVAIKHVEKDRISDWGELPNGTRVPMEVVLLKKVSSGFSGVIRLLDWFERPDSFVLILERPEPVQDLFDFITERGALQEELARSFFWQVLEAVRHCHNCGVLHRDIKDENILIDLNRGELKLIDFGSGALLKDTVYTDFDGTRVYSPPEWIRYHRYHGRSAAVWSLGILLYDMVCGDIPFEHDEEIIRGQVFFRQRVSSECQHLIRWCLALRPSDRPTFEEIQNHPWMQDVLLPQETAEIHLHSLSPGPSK
High affinity nerve growth factor receptor, sequence (P04629 whole entry): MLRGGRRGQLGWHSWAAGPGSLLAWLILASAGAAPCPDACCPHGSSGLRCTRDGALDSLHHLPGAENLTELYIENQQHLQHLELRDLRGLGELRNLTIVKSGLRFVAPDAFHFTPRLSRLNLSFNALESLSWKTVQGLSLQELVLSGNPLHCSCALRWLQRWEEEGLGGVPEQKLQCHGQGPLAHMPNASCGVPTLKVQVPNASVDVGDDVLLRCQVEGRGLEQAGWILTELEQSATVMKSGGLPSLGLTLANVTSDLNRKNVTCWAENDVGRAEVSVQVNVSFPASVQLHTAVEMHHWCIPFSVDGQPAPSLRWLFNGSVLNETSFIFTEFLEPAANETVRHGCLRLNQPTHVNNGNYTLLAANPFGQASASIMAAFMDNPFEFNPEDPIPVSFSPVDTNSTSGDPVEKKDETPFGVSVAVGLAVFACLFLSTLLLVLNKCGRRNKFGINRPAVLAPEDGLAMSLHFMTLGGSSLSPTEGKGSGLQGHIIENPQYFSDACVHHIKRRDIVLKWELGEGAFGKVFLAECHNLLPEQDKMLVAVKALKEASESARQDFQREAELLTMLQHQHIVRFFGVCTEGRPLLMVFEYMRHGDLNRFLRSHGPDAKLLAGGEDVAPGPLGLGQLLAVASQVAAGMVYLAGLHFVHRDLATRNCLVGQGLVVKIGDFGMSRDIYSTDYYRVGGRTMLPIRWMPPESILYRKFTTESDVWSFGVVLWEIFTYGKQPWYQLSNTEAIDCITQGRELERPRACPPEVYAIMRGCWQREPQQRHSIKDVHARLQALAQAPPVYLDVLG
Tyrosine-protein kinase Fyn, sequence (P06241 whole entry): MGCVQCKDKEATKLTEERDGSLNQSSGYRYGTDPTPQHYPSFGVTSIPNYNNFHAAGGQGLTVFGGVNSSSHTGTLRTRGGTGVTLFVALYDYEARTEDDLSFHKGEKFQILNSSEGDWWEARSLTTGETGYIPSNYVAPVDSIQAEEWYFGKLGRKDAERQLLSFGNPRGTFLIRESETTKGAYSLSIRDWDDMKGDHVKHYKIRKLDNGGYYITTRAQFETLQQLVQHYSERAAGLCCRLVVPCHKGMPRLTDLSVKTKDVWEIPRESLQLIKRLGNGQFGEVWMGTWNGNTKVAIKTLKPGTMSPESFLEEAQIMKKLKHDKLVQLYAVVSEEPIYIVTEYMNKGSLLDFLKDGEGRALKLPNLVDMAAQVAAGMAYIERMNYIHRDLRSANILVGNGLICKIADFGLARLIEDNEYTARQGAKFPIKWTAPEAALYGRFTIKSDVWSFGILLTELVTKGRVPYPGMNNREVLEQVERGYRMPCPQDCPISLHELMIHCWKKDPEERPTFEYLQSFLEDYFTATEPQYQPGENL
Aurora kinase A, sequence (O14965 whole entry): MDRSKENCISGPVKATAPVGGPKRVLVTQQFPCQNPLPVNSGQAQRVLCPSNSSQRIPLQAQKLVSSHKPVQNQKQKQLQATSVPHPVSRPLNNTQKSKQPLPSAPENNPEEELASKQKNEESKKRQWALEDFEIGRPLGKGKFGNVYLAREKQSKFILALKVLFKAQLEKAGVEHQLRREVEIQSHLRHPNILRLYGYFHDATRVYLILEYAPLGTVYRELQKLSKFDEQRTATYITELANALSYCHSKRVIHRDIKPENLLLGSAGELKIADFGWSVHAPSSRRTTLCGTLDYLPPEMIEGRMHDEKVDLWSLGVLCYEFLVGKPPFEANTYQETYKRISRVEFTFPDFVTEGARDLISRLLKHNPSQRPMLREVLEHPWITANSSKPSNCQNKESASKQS
Leukocyte tyrosine kinase receptor, sequence (P29376 whole entry): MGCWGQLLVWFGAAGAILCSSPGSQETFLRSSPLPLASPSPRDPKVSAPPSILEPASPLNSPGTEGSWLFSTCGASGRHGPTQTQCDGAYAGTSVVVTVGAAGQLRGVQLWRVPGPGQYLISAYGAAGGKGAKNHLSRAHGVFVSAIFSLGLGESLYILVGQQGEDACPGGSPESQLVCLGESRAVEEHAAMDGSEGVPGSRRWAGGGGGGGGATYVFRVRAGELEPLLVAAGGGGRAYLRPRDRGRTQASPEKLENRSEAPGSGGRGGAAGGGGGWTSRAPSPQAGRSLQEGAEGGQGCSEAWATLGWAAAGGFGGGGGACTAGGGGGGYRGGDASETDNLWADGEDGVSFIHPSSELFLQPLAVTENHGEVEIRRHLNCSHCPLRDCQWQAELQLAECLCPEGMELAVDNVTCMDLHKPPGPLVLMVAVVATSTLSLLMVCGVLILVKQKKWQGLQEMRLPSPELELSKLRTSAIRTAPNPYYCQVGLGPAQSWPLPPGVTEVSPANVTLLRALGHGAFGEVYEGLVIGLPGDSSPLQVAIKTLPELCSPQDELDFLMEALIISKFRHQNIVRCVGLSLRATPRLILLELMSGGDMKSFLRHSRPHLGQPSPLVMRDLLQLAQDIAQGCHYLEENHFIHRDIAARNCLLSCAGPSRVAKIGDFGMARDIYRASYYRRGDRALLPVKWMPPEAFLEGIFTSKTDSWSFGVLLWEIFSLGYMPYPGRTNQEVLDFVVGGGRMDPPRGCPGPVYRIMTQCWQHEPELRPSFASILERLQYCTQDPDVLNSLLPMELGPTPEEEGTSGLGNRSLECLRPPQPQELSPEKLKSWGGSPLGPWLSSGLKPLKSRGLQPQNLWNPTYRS
5'-AMP-activated protein kinase catalytic subunit alpha-1, sequence (Q13131 whole entry): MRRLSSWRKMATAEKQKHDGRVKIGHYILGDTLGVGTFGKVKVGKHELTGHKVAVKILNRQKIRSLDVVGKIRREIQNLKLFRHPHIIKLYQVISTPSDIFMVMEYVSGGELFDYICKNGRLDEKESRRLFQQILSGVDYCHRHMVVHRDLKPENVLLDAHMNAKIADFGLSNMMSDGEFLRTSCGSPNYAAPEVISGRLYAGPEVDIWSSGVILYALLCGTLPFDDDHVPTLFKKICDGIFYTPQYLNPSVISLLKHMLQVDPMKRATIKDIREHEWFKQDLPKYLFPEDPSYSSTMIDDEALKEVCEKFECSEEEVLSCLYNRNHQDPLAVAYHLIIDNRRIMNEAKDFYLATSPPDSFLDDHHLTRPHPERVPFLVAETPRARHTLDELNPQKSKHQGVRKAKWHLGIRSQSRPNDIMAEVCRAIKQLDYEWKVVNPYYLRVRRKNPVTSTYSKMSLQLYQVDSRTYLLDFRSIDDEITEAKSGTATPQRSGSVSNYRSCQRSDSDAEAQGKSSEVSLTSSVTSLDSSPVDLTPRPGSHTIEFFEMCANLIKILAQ
Serine/threonine-protein kinase D3, sequence (O94806 whole entry): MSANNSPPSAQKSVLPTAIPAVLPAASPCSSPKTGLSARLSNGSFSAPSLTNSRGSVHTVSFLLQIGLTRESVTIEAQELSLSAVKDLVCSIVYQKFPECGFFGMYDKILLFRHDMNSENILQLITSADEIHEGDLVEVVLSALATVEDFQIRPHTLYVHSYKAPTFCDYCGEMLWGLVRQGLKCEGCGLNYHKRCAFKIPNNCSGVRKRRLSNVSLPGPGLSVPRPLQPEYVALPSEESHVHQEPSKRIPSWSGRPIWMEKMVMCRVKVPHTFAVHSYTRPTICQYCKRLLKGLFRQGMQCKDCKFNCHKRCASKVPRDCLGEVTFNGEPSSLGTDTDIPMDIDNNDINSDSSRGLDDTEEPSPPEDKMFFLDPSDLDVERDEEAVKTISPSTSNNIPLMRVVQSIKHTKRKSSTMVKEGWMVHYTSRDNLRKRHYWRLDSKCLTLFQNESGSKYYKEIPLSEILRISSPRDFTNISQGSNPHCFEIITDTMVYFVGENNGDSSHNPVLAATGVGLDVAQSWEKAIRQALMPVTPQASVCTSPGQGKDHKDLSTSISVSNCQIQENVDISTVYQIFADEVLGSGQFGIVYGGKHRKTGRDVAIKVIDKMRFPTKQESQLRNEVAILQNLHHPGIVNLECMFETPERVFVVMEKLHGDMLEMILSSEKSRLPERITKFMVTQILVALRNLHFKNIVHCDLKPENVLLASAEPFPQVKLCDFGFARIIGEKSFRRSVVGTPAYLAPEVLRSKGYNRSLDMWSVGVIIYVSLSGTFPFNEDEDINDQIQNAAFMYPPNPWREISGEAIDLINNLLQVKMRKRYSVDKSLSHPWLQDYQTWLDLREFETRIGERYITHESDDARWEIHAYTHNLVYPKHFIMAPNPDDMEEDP
Mitogen-activated protein kinase 9, sequence (P45984 whole entry): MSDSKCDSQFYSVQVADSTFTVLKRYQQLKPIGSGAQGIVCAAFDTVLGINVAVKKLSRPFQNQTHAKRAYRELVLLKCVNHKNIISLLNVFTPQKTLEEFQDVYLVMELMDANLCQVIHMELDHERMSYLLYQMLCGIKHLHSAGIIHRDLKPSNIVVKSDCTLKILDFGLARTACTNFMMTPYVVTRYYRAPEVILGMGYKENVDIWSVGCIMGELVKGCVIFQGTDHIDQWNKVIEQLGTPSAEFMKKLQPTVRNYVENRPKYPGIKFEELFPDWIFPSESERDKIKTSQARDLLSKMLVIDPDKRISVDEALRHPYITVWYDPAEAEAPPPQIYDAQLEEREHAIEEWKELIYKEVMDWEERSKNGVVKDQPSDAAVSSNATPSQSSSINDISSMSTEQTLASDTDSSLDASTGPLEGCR

In the case of `O=C(Nc1cccc(C(F)(F)F)n1)Nc1ccnc2ccc(Cl)cc12`, the Ki [1] is reported as > 3.98 µM (inactive), the Ki [2] is reported as 5.01 µM (active) and the Ki [3] is reported as > 3.16 µM (inactive). The Ki [4] was > 2.51 µM (inactive), the Ki [5] was > 3.16 µM (inactive) and the Ki [6] was > 6.31 µM (inactive). The Ki [7] was > 2.51 µM (inactive), the Ki [8] was > 2.51 µM (inactive) and the Ki [9] was > 7.94 µM (inactive). The Ki [10] was > 3.98 µM (inactive), the Ki [11] was > 3.16 µM (inactive) and the Ki [12] was > 2.51 µM (inactive). For the same compound, the Ki [13] was > 2.51 µM (inactive), the Ki [14] was > 3.98 µM (inactive) and the Ki [15] was 0.158 µM (active). The Ki [16] was 0.0631 µM (active), the Ki [17] was > 6.31 µM (inactive) and the Ki [18] was > 3.98 µM (inactive). The Ki (Activated CDC42 kinase 1) was > 3.98 µM (inactive), the Ki [19] was > 3.16 µM (inactive) and the Ki [20] was > 6.31 µM (inactive). The Ki [21] was > 3.98 µM (inactive), the Ki [22] was 3.16 µM (active) and the Ki [23] was > 2.51 µM (inactive). The Ki [24] was 0.0398 µM (active), the Ki [25] was > 3.16 µM (inactive) and the Ki (Aurora kinase B) was > 3.98 µM (inactive). For the same compound, the Ki [26] was 1.58 µM (active), the Ki [27] was > 2.51 µM (inactive) and the Ki [28] was > 6.31 µM (inactive). For the same compound, the Ki [29] was > 3.16 µM (inactive), the Ki [30] was 2 µM (active) and the Ki [31] was > 3.16 µM (inactive). The Ki [32] was > 2.51 µM (inactive), the Ki [33] was 2.51 µM (active) and the Ki [34] was > 3.98 µM (inactive). The Ki [35] was > 6.31 µM (inactive), the Ki [36] was > 5.01 µM (inactive) and the Ki [37] was > 2 µM (inactive). For the same compound, the Ki [38] was 0.0631 µM (active), the Ki [39] was > 3.98 µM (inactive) and the Ki [40] was > 5.01 µM (inactive). The Ki [41] was > 2.51 µM (inactive), the Ki [42] was > 3.98 µM (inactive) and the Ki [43] was > 1.58 µM (inactive). The Ki (Activin receptor type-1) was 1.58 µM (active), the Ki [44] was > 5.01 µM (inactive) and the Ki [45] was > 3.16 µM (inactive). For the same compound, the Ki [46] was > 3.16 µM (inactive), the Ki [47] was > 3.98 µM (inactive) and the Ki [48] was > 3.98 µM (inactive). The Ki (Aurora kinase A) was > 1.58 µM (inactive), the Ki [49] was > 2.51 µM (inactive) and the Ki [50] was > 5.01 µM (inactive). For the same compound, the Ki [51] was > 3.98 µM (inactive), the Ki [52] was > 1.26 µM (inactive) and the Ki [53] was > 3.98 µM (inactive).
